Assay results published in patent US20100075926A1, “ACTIVATION OF HISTONE DEACETYLASE 1 (HDAC1) PROTECTS AGAINST DNA DAMAGE AND INCREASES NEURONAL SURVIVAL” (priority 2008, published 2010).

What was measured:
Type in all cases: biochemical
recombinant human HDAC5 = target: T1, recombinant human HDAC5 (Homo sapiens, UniProt Q9UQL6); experiment: 384-well fluorometric deacetylase assay (substrate MAZ1675), HDAC5; conditions: for HDAC5 slope: rate of reaction (slope), DMSO control 50401; for % HDAC5 activ: slope normalized to mean of DMSO control (DMSO = 1.00)
T1 construct: purchased BPS Biosciences
From the text: (§1) TCEP was omitted from the assay buffer. Rates of reactions (slopes) were normalized to the mean of DMSO control treatments for each enzyme on each plate. Bradner J E, West N, Grachan M L, Greenberg E F, Haggarty S J, Mazitsheck. Nature Chemical Biology (under review). Bradner J E, West N, Grachan M L, Greenberg E F, Haggarty S J, Mazitsheck. Chemical Phylogenetics of Histone Deacetylases. […] Z

recombinant human HDAC2 = target: T2, recombinant human HDAC2 (Homo sapiens, UniProt Q92769); experiment: 384-well fluorometric deacetylase assay (substrate MAZ1600), HDAC2; conditions: for HDAC2 slope: rate of reaction (slope), DMSO control 40839; for % HDAC2 Activ: slope normalized to mean of DMSO control (DMSO = 1.00)
T2 construct: purchased BPS Biosciences
From the text: as §1

recombinant human HDAC3 = target: T3, recombinant human HDAC3 (Homo sapiens, UniProt O15379); experiment: 384-well fluorometric deacetylase assay (substrate MAZ1600), HDAC3; conditions: for HDAC3 slope: rate of reaction (slope), DMSO control 54625; for % HDAC3 Activ: slope normalized to mean of DMSO control (DMSO = 1.00)
T3 construct: purchased BPS Biosciences
From the text: as §1

recombinant human HDAC1 = target: T4, recombinant human HDAC1 (Homo sapiens, UniProt Q13547); experiment: 384-well fluorometric deacetylase assay (substrate MAZ1600), HDAC1; design: % HDAC1 Activ: unit not given here; conditions: for Classification: class assigned from the HDAC1, 2, 3, 5 panel; for HDAC1 slope: rate of reaction (slope), DMSO control 37787; for % HDAC1 Activ: slope normalized to mean of DMSO control (DMSO = 1.00)
T4 construct: purchased BPS Biosciences
From the text: as §1

T4 sequence (Q13547 whole entry): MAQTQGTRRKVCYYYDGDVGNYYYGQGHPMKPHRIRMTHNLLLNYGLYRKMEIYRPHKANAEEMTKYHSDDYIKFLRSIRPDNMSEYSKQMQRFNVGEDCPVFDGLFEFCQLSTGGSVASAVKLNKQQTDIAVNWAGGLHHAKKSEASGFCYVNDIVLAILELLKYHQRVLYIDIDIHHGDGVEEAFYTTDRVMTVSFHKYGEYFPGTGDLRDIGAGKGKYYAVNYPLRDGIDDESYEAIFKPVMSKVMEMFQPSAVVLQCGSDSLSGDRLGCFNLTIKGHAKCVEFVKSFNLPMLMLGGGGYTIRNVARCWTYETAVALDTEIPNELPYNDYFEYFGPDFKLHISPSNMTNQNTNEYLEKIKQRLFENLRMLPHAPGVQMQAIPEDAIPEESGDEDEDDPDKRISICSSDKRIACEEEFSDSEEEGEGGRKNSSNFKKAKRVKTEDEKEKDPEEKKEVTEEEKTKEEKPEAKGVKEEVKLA
T3 sequence (O15379 whole entry): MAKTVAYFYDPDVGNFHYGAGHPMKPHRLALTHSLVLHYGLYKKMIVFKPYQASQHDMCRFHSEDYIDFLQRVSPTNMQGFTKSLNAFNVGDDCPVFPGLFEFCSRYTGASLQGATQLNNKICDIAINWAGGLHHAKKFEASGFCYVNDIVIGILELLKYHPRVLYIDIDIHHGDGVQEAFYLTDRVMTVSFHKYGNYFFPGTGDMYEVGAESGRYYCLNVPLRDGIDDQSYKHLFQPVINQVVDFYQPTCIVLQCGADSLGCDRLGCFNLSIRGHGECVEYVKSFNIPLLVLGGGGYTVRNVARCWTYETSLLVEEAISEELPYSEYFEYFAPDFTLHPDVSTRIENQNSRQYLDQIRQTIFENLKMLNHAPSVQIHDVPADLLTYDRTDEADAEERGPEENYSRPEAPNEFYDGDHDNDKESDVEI
T3 sequence (Q9Y618 395-489 partner limits assumed): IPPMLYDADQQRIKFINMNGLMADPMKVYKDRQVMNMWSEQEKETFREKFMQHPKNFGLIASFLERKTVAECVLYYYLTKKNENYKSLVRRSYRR
T2 sequence (Q92769 whole entry): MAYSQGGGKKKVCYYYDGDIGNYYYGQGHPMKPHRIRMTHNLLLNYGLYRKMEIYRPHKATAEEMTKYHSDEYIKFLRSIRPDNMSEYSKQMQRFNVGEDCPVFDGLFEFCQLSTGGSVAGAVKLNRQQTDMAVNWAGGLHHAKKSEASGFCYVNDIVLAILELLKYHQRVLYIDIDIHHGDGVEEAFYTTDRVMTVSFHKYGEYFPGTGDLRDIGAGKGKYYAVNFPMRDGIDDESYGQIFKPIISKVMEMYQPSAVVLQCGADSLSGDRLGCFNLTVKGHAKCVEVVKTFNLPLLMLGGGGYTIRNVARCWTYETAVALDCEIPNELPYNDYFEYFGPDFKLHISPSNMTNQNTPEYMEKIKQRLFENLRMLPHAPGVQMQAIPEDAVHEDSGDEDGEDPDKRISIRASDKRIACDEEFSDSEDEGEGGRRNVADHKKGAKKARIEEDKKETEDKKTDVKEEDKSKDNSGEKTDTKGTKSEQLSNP
T1 sequence (Q9UQL6 whole entry): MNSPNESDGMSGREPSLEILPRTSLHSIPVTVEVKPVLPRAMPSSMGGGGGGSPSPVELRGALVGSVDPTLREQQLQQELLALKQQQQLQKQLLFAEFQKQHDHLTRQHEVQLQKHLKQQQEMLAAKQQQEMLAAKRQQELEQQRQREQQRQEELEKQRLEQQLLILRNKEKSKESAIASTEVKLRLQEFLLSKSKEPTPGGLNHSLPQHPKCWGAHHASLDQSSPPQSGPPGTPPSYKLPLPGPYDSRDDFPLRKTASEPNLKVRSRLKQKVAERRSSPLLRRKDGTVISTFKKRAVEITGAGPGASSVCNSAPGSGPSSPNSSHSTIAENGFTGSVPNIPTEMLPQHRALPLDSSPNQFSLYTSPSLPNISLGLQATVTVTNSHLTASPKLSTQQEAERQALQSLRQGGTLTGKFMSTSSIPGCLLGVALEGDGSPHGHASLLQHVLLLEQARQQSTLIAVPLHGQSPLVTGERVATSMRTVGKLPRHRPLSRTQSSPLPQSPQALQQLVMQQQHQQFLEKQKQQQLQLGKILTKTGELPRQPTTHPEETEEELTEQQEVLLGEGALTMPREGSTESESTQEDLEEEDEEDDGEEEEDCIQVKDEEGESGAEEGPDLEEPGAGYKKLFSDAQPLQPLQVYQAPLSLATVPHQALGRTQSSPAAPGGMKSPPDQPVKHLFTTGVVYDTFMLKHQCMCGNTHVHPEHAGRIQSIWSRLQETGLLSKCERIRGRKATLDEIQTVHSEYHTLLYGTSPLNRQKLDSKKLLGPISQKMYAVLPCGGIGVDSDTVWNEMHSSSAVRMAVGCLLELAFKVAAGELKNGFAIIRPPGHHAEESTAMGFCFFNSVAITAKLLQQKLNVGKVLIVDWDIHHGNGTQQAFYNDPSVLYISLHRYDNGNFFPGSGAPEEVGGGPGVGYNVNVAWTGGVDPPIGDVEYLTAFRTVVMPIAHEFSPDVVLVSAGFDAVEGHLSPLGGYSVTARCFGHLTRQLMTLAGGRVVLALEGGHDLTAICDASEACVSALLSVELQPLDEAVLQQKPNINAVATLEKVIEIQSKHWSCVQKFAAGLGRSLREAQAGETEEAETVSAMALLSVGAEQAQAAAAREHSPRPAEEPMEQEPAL

Compound	HDAC5 slope (recombinant human HDAC5)	% HDAC5 activ (recombinant human HDAC5)	HDAC2 slope (recombinant human HDAC2)	% HDAC2 Activ (recombinant human HDAC2)	HDAC3 slope (recombinant human HDAC3)	% HDAC3 Activ (recombinant human HDAC3)	Classification (recombinant human HDAC1)	HDAC1 slope (recombinant human HDAC1)	% HDAC1 Activ (recombinant human HDAC1)
phenazopyridine hydrochloride [Phenazo- pyridine hydrochloride]	54125	107%	42470	1.04 fraction of DMSO control	56613	1.04 fraction of DMSO control	HDAC1 activator	40631	1.08
NCC(CC(=O)O)c1ccc(Cl)s1 (racemic) [(+-)-4-amino-3-(5-chloro-2-thienyl)-butanoic acid]	50272	100%	40008	0.98 fraction of DMSO control	54049	0.99 fraction of DMSO control	HDAC1 activator	40239	1.06
O=C(O)[C@@H]1C[C@H]2C[C@@H](CP(=O)(O)O)CC[C@H]2CN1 [LY 235959]	43688	–	42923	–	65435	–	HDAC1 & HDAC3 activator	40893	–
C[C@H](N)[C@H](O)c1ccc(O)c(O)c1 [Levonordefrin]	47752	–	40182	–	62457	–	HDAC1 & HDAC3 activator	40405	–
C[C@](N)(Cc1ccc(O)c(O)c1)C(=O)O [Methyldopa (L,-)]	56516	–	42153	–	60891	–	HDAC1 & HDAC3 activator	40553	–
N[C@H](CC(=O)O)C(=O)O [D- ASPARTIC ACID, D-aspartic acid]	45291	–	42016	–	54899	–	HDAC1 activator	40655	–
O=C(O)[C@H]1C[C@@H](CP(=O)(O)O)CCN1 [CGS 19755]	48280	–	42301	–	57057	–	HDAC1 activator	41839	–
CCN(CC)CCc1nc(-c2ccccc2)no1.O=C(O)CC(O)(CC(=O)O)C(=O)O [Oxalamine citrate salt]	47216	–	41269	–	60752	–	HDAC1 & HDAC3 activator	40700	–
CC1(C)S[C@@H]2[C@H](NC(=O)[C@H](N)c3ccccc3)C(=O)N2[C@H]1C(=O)O [Ampicillin trihydrate]	46606	–	43966	–	56660	–	HDAC1 & HDAC3 activator	40160	–
Oc1cc2c(c(Cl)c1O)CCNC[C@@H]2c1ccccc1 [R(+)-SKF- 81297]	48294	–	42197	–	66733	–	HDAC1 & HDAC3 activator	40201	–
COc1cc([C@@H]2c3cc4c(cc3[C@H](O)[C@H]3COC(=O)[C@H]23)OCO4)cc(OC)c1OC [Podophyllo toxin, podophyllotoxin]	54734	–	39197	–	53416	–	HDAC1 activator	40983	–
CC(O)(P(=O)([O-])O)P(=O)([O-])O.[Na+].[Na+] [Etidronic acid, disodium salt]	51711	–	41315	–	58286	–	HDAC1 & HDAC3 activator	40241	–
NC(C(=O)O)c1nnn[nH]1 (racemic)	45589	–	42215	–	56930	–	HDAC1 activator	40343	–
CP(=O)(O)CCCN [SK&F 97541]	49250	–	39881	–	54915	–	HDAC1 activator	40213	–
